Reference: patent US10709702B2, “Treatment of skin disorders by topical administration of VEGF inhibitors” (AMD THERAPEUTICS LLC, priority 2015, dated 2020)

Test: Skin absorption after topical application to a hand, disappearance of red color
Type: in vivo, human

Question: For `CO[C@H]1/C=C/O[C@@]2(C)Oc3c(C)c(O)c4c(O)c(c(/C=N/N5CCN(C)CC5)c(O)c4c3C2=O)NC(=O)/C(C)=C\C=C\[C@H](C)[C@H](O)[C@@H](C)[C@@H](O)[C@@H](C)[C@H](OC(C)=O)[C@@H]1C` [rifampicin], which “Time until absorbed in skin tissue (red color disappeared)” value is on record?
Answer: The value was 1 to 2 h.
